Data taken from patent US20230113037A1 (Bayer Aktiengesellschaft, priority 2019, published 2023).
Like-named read-outs stand apart in the source and are kept apart here.

Tests used:
AHR [1] = target: T1, AHR (Homo sapiens, UniProt P35869); test: In vitro assay 1: antagonism in human cell line (AHR transactivation, firefly luciferase reporter, kynurenic acid prestimulated); format: cell-based; details: AHR Antagonism Human IC50 [M]
T1 construct: U87 MG glioblastoma cells (ATCC #HTB-14) endogenously expressing AHR; endogenous in cells; host or cells: U87 MG glioblastoma cells (ATCC #HTB-14)
T1 sequence (P35869 11-848): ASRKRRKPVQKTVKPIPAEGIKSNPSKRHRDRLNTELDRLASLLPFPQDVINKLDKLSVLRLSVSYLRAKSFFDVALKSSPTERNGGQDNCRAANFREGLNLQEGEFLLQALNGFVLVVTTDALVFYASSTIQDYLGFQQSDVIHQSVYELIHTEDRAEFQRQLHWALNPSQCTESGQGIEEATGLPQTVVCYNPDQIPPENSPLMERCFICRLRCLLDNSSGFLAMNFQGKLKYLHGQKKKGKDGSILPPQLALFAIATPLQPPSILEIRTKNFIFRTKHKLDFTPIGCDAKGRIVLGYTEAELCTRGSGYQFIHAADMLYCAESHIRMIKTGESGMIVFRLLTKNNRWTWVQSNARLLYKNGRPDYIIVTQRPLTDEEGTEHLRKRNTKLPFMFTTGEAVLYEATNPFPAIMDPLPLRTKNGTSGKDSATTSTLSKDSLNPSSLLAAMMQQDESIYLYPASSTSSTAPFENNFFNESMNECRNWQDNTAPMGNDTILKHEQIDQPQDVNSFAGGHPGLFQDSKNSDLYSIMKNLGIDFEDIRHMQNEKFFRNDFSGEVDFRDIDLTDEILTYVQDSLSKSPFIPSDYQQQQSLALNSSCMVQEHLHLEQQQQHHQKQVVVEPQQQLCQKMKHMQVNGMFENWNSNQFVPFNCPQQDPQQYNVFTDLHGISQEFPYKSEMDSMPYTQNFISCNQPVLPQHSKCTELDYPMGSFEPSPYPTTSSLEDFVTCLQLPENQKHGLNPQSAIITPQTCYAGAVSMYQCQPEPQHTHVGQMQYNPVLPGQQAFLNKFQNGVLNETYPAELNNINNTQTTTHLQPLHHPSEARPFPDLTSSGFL
In short: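 Antagonism is measured against kynurenic acid prestimulation in U87 MG glioblastoma cells carrying stable DRE-luciferase and Renilla reporters. Positive inhibition control: 150 μM kynurenic acid with 5 μM staurosporine. Values are normalized to controls; repeats are averaged or given as medians.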

AHR [2] = target: T2, AHR (Mus musculus, UniProt P30561); test: In vitro assay 3: antagonism in mouse cell line (AHR transactivation, firefly luciferase reporter, kynurenic acid prestimulated); format: cell-based; details: 200 μM kynurenic acid, 20 hours, read-out: AHR Antagonism Mouse IC50
T2 sequence (P30561 1-848 P471L/N533S/M589L): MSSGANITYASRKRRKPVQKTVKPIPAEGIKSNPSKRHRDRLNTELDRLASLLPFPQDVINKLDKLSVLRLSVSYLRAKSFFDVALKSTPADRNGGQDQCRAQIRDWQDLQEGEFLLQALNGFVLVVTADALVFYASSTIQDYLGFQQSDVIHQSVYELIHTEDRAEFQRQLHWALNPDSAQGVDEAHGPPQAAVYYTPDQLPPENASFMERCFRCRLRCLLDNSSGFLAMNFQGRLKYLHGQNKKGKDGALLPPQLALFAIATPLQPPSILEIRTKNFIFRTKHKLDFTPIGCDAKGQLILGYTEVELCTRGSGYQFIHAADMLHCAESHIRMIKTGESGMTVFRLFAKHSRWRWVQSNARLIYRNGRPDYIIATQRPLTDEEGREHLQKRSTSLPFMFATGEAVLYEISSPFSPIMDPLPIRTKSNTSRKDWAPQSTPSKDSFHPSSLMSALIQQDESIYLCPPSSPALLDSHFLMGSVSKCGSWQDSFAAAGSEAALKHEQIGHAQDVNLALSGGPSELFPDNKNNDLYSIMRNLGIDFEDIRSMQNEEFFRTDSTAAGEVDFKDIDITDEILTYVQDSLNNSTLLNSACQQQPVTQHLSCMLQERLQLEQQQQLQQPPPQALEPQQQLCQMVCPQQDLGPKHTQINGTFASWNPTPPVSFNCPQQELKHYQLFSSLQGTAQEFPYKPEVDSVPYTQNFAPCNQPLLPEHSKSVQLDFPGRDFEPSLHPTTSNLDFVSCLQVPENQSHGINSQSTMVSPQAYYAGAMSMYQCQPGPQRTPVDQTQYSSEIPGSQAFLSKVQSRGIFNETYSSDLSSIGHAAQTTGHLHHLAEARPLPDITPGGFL
In short: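 Kynurenic acid-prestimulated mouse reporter cells; stable AHR-inducible firefly luc construct with DRE sites in promoter. No-agonist wells = positive inhibition ctrl. Luminescence normalized to pos/neg ctrls; n>1 reported as mean or median.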

For `CC(C)c1noc(-c2nc3c4ccccc4nc(N[C@@H]4CCCCNC4=O)n3n2)n1` [Example 133, (3R)-3-({2-[3-(propan-2-yl)-1,2,4-oxadiazol-5-yl][1,2,4]triazolo[1,5-c]quinazolin-5-yl}amino)azepan-2-one], the IC50 (AHR [1]) was 1.92e-08 M and the IC50 (AHR [2]; mouse Hepa 1c1c7 cells) was 32.7 nM.
`CCNC(=O)C(CC)Nc1nc2ccccc2c2nc(-c3ccccc3OC(F)(F)F)nn12` (single isomer, unassigned) [Example 663, N-ethyl-2-({2-[2-(trifluoromethoxy)phenyl][1,2,4]triazolo[1,5-c]quinazolin-5-yl}amino)butanamide] showed an IC50 (AHR [1]) greater than 2e-05 M and an IC50 (AHR [2]; mouse Hepa 1c1c7 cells) of 317 nM.
`O=C1NCCCC[C@H]1Nc1nc2ccccc2c2nc(-c3nc(C(F)(F)F)no3)nn12` [Example 136, (3R)-3-({2-[3-(trifluoromethyl)-1,2,4-oxadiazol-5-yl][1,2,4]triazolo[1,5-c]quinazolin-5-yl}amino)azepan-2-one] showed an IC50 (AHR [1]) of 3.09e-08 M and an IC50 (AHR [2]; mouse Hepa 1c1c7 cells) of 9.58 nM.
For `CCCCNC(=O)CNc1nc2ccccc2c2nc(-c3ccncc3F)nn12` [Example 485, N-butyl-N^2-[2-(3-fluoropyridin-4-yl)[1,2,4]triazolo[1,5-c]quinazolin-5-yl]glycinamide], the IC50 (AHR [1]) was 7.54e-07 M and the IC50 (AHR [2]; mouse Hepa 1c1c7 cells) was 10100 nM.
In the case of `COc1ccc(-c2nc3c4c(C5CC5)cccc4nc(N[C@@H]4CCCCNC4=O)n3n2)cc1` [Example 176, (3R)-3-{[10-cyclopropyl-2-(4-methoxyphenyl)[1,2,4]triazolo[1,5-c]quinazolin-5-yl]amino}azepan-2-one], the IC50 (AHR [1]) is reported as 6.81e-09 M and the IC50 (AHR [2]; mouse Hepa 1c1c7 cells) is reported as 6.55 nM.
In the case of `COc1cccc(-c2nc3c4cc(F)ccc4nc(N[C@H]4CCCCNC4=O)n3n2)c1` [Example 160, (3S)-3-{[9-fluoro-2-(3-methoxyphenyl)[1,2,4]triazolo[1,5-c]quinazolin-5-yl]amino}azepan-2-one], the IC50 (AHR [1]) is reported as 1.43e-07 M and the IC50 (AHR [2]; mouse Hepa 1c1c7 cells) is reported as 15.4 nM.
Compound `Cn1cc(-c2nc3c4cccc(C(F)(F)F)c4nc(N[C@@H]4CCCNC4=O)n3n2)cn1` [Example 585, (3R)-3-{[2-(1-methyl-1H-pyrazol-4-yl)-7-(trifluoromethyl)[1,2,4]triazolo[1,5-c]quinazolin-5-yl]amino}piperidin-2-one] has an IC50 (AHR [1]) of 6.91e-08 M and an IC50 (AHR [2]; mouse Hepa 1c1c7 cells) of 830 nM.
For `O=C1NCCNC[C@H]1Nc1nc2ccccc2c2nc(-c3ccccc3OC(F)(F)F)nn12` [Example 720, (6R)-6-({2-[2-(trifluoromethoxy)phenyl][1,2,4]triazolo[1,5-c]quinazolin-5-yl}amino)-1,4-diazepan-5-one], the IC50 (AHR [1]) was 1.45e-07 M and the IC50 (AHR [2]; mouse Hepa 1c1c7 cells) was 63.8 nM.
`COc1ccc(-c2nc3c4cccc(Br)c4nc(N[C@H](C)C(=O)NCCN4CCCCC4)n3n2)cc1` [Example 895, N^2-[7-bromo-2-(4-methoxyphenyl)[1,2,4]triazolo[1,5-c]quinazolin-5-yl]-N-[2-(piperidin-1-yl)ethyl]-D-alaninamide] showed an IC50 (AHR [1]; firefly luciferase reporter) of 1.18e-08 M and an IC50 (AHR [2]; Hepa 1c1c7 cells, firefly luciferase reporter) of 17.3 nM.
Compound `N#Cc1ccc(-c2nc3c4cccc(Br)c4nc(N[C@@H]4CCCCNC4=O)n3n2)cc1` [Example 558, 4-(7-bromo-5-{[(3R)-2-oxoazepan-3-yl]amino}[1,2,4]triazolo[1,5-c]quinazolin-2-yl)benzonitrile] has an IC50 (AHR [1]) of 5.96e-09 M and an IC50 (AHR [2]; mouse Hepa 1c1c7 cells) of 0.276 nM.
For `COc1ccc(-c2nc3c4ccc(C)cc4nc(N[C@@H]4CNCCNC4=O)n3n2)cc1` [Example 274, (6R)-6-{[2-(4-methoxyphenyl)-8-methyl[1,2,4]triazolo[1,5-c]quinazolin-5-yl]amino}-1,4-diazepan-5-one], the IC50 (AHR [1]) was 1.09e-06 M and the IC50 (AHR [2]; mouse Hepa 1c1c7 cells) was 2150 nM.
In the case of `N#Cc1ccc(-c2nc3c4ccccc4nc(N[C@H]4CCCCNC4=O)n3n2)cc1` [Example 437, 4-(5-{[(3S)-2-oxoazepan-3-yl]amino}[1,2,4]triazolo[1,5-c]quinazolin-2-yl)benzonitrile], the IC50 (AHR [1]) is reported as 3.65e-08 M and the IC50 (AHR [2]; mouse Hepa 1c1c7 cells) is reported as 7.87 nM.
In the case of `Cn1cc(-c2nc3c4cc(Cl)ccc4nc(N[C@@H]4CCCCNC4=O)n3n2)cn1` [Example 236, (3R)-3-{[9-chloro-2-(1-methyl-1H-pyrazol-4-yl)[1,2,4]triazolo[1,5-c]quinazolin-5-yl]amino}azepan-2-one], the IC50 (AHR [1]) is reported as 2.62e-08 M and the IC50 (AHR [2]; mouse Hepa 1c1c7 cells) is reported as 21.2 nM.
`CC[C@@H](Nc1nc2ccccc2c2nc(-c3cc(Br)ccc3OC(F)(F)F)nn12)C(N)=O` [Example 507, (2R)-2-({2-[5-bromo-2-(trifluoromethoxy)phenyl][1,2,4]triazolo[1,5-c]quinazolin-5-yl}amino)butanamide] showed an IC50 (AHR [1]) of 3.44e-07 M and an IC50 (AHR [2]; mouse Hepa 1c1c7 cells) of 41.2 nM.
Work on `CC[C@@H](Nc1nc2c(Br)cccc2c2nc(-c3cnn(C)c3)nn12)C(N)=O` [Example 696, (2R)-2-{[7-bromo-2-(1-methyl-1H-pyrazol-4-yl)[1,2,4]triazolo[1,5-c]quinazolin-5-yl]amino}butanamide] yielded an IC50 (AHR [1]) of 3.23e-09 M and an IC50 (AHR [2]; mouse Hepa 1c1c7 cells) of 8.97 nM.
`O=C1NCCCC[C@H]1Nc1nc2c(C(F)(F)F)cccc2c2nc(-c3ccc(F)cc3)nn12` [Example 203, (3R)-3-{[2-(4-fluorophenyl)-7-(trifluoromethyl)[1,2,4]triazolo[1,5-c]quinazolin-5-yl]amino}azepan-2-one] gave an IC50 (AHR [1]) of 6.29e-10 M and an IC50 (AHR [2]; mouse Hepa 1c1c7 cells) of 0.48 nM.
Work on `CCOc1cccc2c1nc(N[C@@H]1CCCCNC1=O)n1nc(-c3ccc(OC)cc3)nc21` [Example 667, (3R)-3-{[7-ethoxy-2-(4-methoxyphenyl)[1,2,4]triazolo[1,5-c]quinazolin-5-yl]amino}azepan-2-one] yielded an IC50 (AHR [1]) of 2.68e-09 M and an IC50 (AHR [2]; mouse Hepa 1c1c7 cells) of 4.56 nM.
Work on `O=C1NCCNC[C@H]1Nc1nc2c(C(F)(F)F)cccc2c2nc(-c3ccc(Cl)cc3OC(F)(F)F)nn12` [Example 710, (6R)-6-({2-[4-chloro-2-(trifluoromethoxy)phenyl]-7-(trifluoromethyl)[1,2,4]triazolo[1,5-c]quinazolin-5-yl}amino)-1,4-diazepan-5-one] yielded an IC50 (AHR [1]) of 4.84e-09 M and an IC50 (AHR [2]; mouse Hepa 1c1c7 cells) of 1.8 nM.
For `COc1ccc(-c2nc3c4ccccc4nc(N[C@@H]4CNCCNC4=O)n3n2)c(C)c1` [Example 410, (6R)-6-{[2-(4-methoxy-2-methylphenyl)[1,2,4]triazolo[1,5-c]quinazolin-5-yl]amino}-1,4-diazepan-5-one], the IC50 (AHR [1]) was 1.53e-08 M and the IC50 (AHR [2]; mouse Hepa 1c1c7 cells) was 4.73 nM.
For `COC(=O)[C@H](Nc1nc2ccccc2c2nc(-c3cccc(OC)c3)nn12)C(C)C` [Example 104, methyl N-[2-(3-methoxyphenyl)[1,2,4]triazolo[1,5-c]quinazolin-5-yl]-D-valinate], the IC50 (AHR [1]) was 1.12e-08 M and the IC50 (AHR [2]; mouse Hepa 1c1c7 cells) was 2.43 nM.
`O=C1NCCCC[C@H]1Nc1nc2ccccc2c2nc(-c3cccnc3)nn12` [Example 125, (3R)-3-{[2-(pyridin-3-yl)[1,2,4]triazolo[1,5-c]quinazolin-5-yl]amino}azepan-2-one] gave an IC50 (AHR [1]) of 5.68e-10 M and an IC50 (AHR [2]; mouse Hepa 1c1c7 cells) of 4.64 nM.
`COc1ccc(-c2nc3c4ccccc4nc(N[C@H](C)C(=O)NC(C)C)n3n2)cc1` [Example 391, N^2-[2-(4-Methoxyphenyl)[1,2,4]triazolo[1,5-c]quinazolin-5-yl]-N-propan-2-yl-D-alaninamide] showed an IC50 (AHR [1]) of 3.31e-08 M and an IC50 (AHR [2]; mouse Hepa 1c1c7 cells) of 46.1 nM.
